# Read-outs that look alike come from different tables or passages of the source.
# Key:
# Format in all cases: cell-based
# [1] = system: drug-resistant Escherichia coli II (drug-resistant Escherichia coli 1864); assay: Chessboard microbroth dilution MIC/FIC, compound A in combination with meropenem; settings: strain 1864
# Description: (§1) This experiment is designed to determine the minimum inhibitory concentration (MIC) of compound A in combination with meropenem against drug-resistant Escherichia coli I (a strain resistant to carbapenem antibiotics) and drug-resistant Escherichia coli II (a strain resistant to fluoroquinolone antibiotics, non-fluoroquinolone antibiotics, aminoglycoside antibiotics, glycopeptide antibiotics and carbapenem antibiotics), and to calculate the fractional inhibitory concentration (FIC) index.
# 1 strain of drug-resistant Escherichia coli II, namely drug-resistant Escherichia coli 1864, is provided by the School of Pharmacy of Fudan University. This strain is resistant to fluoroquinolone antibiotics (such as levofloxacin), non-fluoroquinolone antibiotics (such as nalidixic acid, nemofloxacin), aminoglycoside antibiotics (such as gentamicin), glycopeptide antibiotics (such as vancomycin) and carbapenem antibiotics (such as meropenem).
# (§2) According to the recommendation of the Clinical and Laboratory Standards Institute (CLSI), the microbroth dilution method designed by the chessboard method was used to determine the minimum inhibitory concentration (MIC) of compound A in combination with meropenem against the above strains, and the fractional inhibitory concentration (FIC) index was calculated.
# (§3) Compound A was dissolved in dimethyl sulfoxide to obtain a stock solution I with a concentration of 1280 mg/L. The stock solution I was diluted to 512 mg/L with sterile water to obtain a gradient dilution first tube solution I. The gradient dilution first tube solution I was subjected to 1:1 gradient dilution with sterile water to obtain a working solution I with a gradient range of 512 to 0.25 mg/L.
# (§4) Meropenem was dissolved in sterile water to obtain a stock solution II with a concentration of 5120 mg/L. The stock solution II was diluted to 1024 mg/L with sterile water to obtain a gradient dilution first tube solution II. The gradient dilution first tube solution II was subjected to 1:1 gradient dilution with sterile water to obtain a working solution II with a gradient range of 1024 to 0.5 mg/L.
# (§5) According to the method in Example 1, a drug sensitive plate was prepared with working solution I and working solution II, and the specific process will not be repeated here.
# (§6) (2) The culture medium of the bacterial solution: Cation-Adjusted Mueller-Hinton Broth (CAMHB), a product of BBL, USA, batch number 9015952.
# (§7) (3) Formulation method of bacterial solution: According to the direct colony suspension method, the test bacteria cultured overnight were prepared into a 0.5 McFarland turbidity tube using physiological saline. Then, the resulting solution was dilute 100 times with the above culture medium. 100 μL of the resulting bacterial solution was mixed well with the solution (100 μL) in each well of the drug sensitivity plate, and the final inoculation amount was 10^5 CFU/mL.
# (§8) (4) Culture conditions: Culturing at 35±2° C. for 20 hours in air.
# (§9) (1) The experimental results were determined according to the standard of CLSI 2019 M100 29th edition.
# (§10) wherein: FIC≤0.5 indicates synergistic effect; 0.5<FIC≤1.0 indicates additive effect; 1<FIC≤2.0 indicates irrelevant effect; and FIC>2 indicates antagonistic effect.
# [2] = system: drug-resistant Escherichia coli I (a strain resistant to carbapenem antibiotics); assay: as above; settings: for MIC: Escherichia coli, read-out: Meropenem MIC alone; for Meropenem MIC in combination: with compound A
# Description: as §1
# 3 strains of drug-resistant Escherichia coli I, namely drug-resistant Escherichia coli 18-W09-093, drug-resistant Escherichia coli 18-W37-025, and drug-resistant Escherichia coli 18-W37-032, are provided by Shanghai Junji Medical Laboratory Co., Ltd. These 3 strains are all resistant to carbapenem antibiotics (e.g., meropenem).
# as §2, §3, §4, §5, §6, §7, §8, §9, §10
# [3] = system: carbapenem-resistant Acinetobacter baumannii; assay: Chessboard microbroth dilution MIC/FIC, compound 1 in combination with meropenem; settings: for MIC: Acinetobacter baumannii; for Meropenem MIC in combination: with compound 1; for Compound 1 MIC in combination: with meropenem
# Description: This experiment is designed to determine the minimum inhibitory concentration (MIC) of compound 1 in combination with meropenem against Acinetobacter baumannii (a strain resistant to carbapenem antibiotics) and to calculate the fractional inhibitory concentration (FIC) index.
# Test bacteria: A total of 9 strains of Acinetobacter baumannii, all of which are resistant to carbapenem antibiotics (e.g., meropenem), are clinically isolated strains, and are provided by Shanghai Junji Medical Laboratory Co., Ltd.
# According to the recommendation of the Clinical and Laboratory Standards Institute (CLSI), the microbroth dilution method designed by the chessboard method was used to determine the minimum inhibitory concentration (MIC) of compound 1 in combination with meropenem against the above strains, and the fractional inhibitory concentration (FIC) index was calculated.
# Compound 1 was dissolved in dimethyl sulfoxide to obtain a stock solution I with a concentration of 1280 mg/L. The stock solution I was diluted to 512 mg/L with sterile water to obtain a gradient dilution first tube solution I. The gradient dilution first tube solution I was subjected to 1:1 gradient dilution with sterile water to obtain a working solution I with a gradient range of 512 to 0.25 mg/L.
# as §4
# 50 μL of solution was taken from each tube of working solution I, and added to the drug sensitivity plate row by row starting from the second well of each row (in each row, the concentration of compound 1 increased from the second well to the last well). 50 μL of solution was taken from each tube of working solution II, and added to the drug sensitivity plate column by column starting from the second well of each column (in each column, the concentration of meropenem increased from the second well to the last well). As a result, a chessboard cross with different concentrations of the two drugs was formed (wherein, there was neither compound 1 nor meropenem in the intersection well of the first row and the first column; the wells of the first row except the intersection well only contained compound 1, and the wells of the first column except the intersection well only contained meropenem; except for the above wells, the remaining wells contained […] and meropenem).
# According to the above process, the volume of the drug solution in each well containing only one drug of the drug sensitivity plate was 50 μL, thus 50 μL of sterile water was added to each well. 100 μL of sterile water was added to the intersection well of the first row and the first column. After that, 100 μL of bacterial solution (formulated according to step (3)) was added to all the wells of the drug sensitivity plate and mixed.
# as §6, §7, §8
# (1) The experimental results were determined according to the standard of CLSI 2019 M100 29th edition. […]
# [4] = strain 18-J11-001, compound 1 + meropenem
# [5] = strain 18-J11-002, compound 1 + meropenem
# [6] = strain 18-J11-034, compound 1 + meropenem
# [7] = strain 18-J11-097, compound 1 + meropenem
# [8] = strain 18-J15-030, compound 1 + meropenem
# [9] = strain 18-J21-095, compound 1 + meropenem
# [10] = strain 18-J24-015, compound 1 + meropenem
# [11] = strain 18-J40-021, compound 1 + meropenem
# [12] = strain 18-J51-052, compound 1 + meropenem
smiles,measurement,setting,value
"C[C@@H](O)[C@H]1C(=O)N2C(C(=O)O)=C(S[C@@H]3CN[C@H](C(=O)N(C)C)C3)[C@H](C)[C@H]12 [Meropenem, reference compound]",MIC,"[1]; Escherichia coli, read-out: Meropenem MIC alone",128 µg/mL
same,Meropenem MIC in combination,[1]; with compound A,2 µg/mL
same,MIC,[2]; strain 18-W09-093,256 µg/mL
same,MIC,[2]; strain 18-W37-025,128 µg/mL
same,MIC,[2]; strain 18-W37-032,128 µg/mL
same,Meropenem MIC in combination,[2]; strain 18-W09-093,2 µg/mL
same,Meropenem MIC in combination,[2]; strain 18-W37-025,1 µg/mL
same,Meropenem MIC in combination,[2]; strain 18-W37-032,4 µg/mL
same,MIC,"[3]; strain 18-J11-001, read-out: Meropenem MIC alone",32 µg/mL
same,MIC,"[3]; strain 18-J11-002, read-out: Meropenem MIC alone",64 µg/mL
same,MIC,"[3]; strain 18-J11-034, read-out: Meropenem MIC alone",64 µg/mL
same,MIC,"[3]; strain 18-J11-097, read-out: Meropenem MIC alone",64 µg/mL
same,MIC,"[3]; strain 18-J15-030, read-out: Meropenem MIC alone",64 µg/mL
same,MIC,"[3]; strain 18-J21-095, read-out: Meropenem MIC alone",64 µg/mL
same,MIC,"[3]; strain 18-J24-015, read-out: Meropenem MIC alone",64 µg/mL
same,MIC,"[3]; strain 18-J40-021, read-out: Meropenem MIC alone",64 µg/mL
same,MIC,"[3]; strain 18-J51-052, read-out: Meropenem MIC alone",32 µg/mL
same,Meropenem MIC in combination,[3]; strain 18-J11-001,8 µg/mL
same,Meropenem MIC in combination,[3]; strain 18-J11-002,16 µg/mL
same,Meropenem MIC in combination,[3]; strain 18-J11-034,16 µg/mL
same,Meropenem MIC in combination,[3]; strain 18-J11-097,16 µg/mL
same,Meropenem MIC in combination,[3]; strain 18-J15-030,8 µg/mL
same,Meropenem MIC in combination,[3]; strain 18-J21-095,16 µg/mL
same,Meropenem MIC in combination,[3]; strain 18-J24-015,32 µg/mL
same,Meropenem MIC in combination,[3]; strain 18-J40-021,16 µg/mL
same,Meropenem MIC in combination,[3]; strain 18-J51-052,4 µg/mL
"O=[N+]([O-])c1c(Br)c(Cl)c2cccnc2c1O [Compound 1, 6-bromo-5-chloro-7-nitroquinolin-8-ol]",MIC,"[3]; strain 18-J11-001, read-out: Compound 1 MIC alone",8 µg/mL
same,MIC,"[3]; strain 18-J11-002, read-out: Compound 1 MIC alone",4 µg/mL
same,MIC,"[3]; strain 18-J11-034, read-out: Compound 1 MIC alone",4 µg/mL
same,MIC,"[3]; strain 18-J11-097, read-out: Compound 1 MIC alone",8 µg/mL
same,MIC,"[3]; strain 18-J15-030, read-out: Compound 1 MIC alone",16 µg/mL
same,MIC,"[3]; strain 18-J21-095, read-out: Compound 1 MIC alone",8 µg/mL
same,MIC,"[3]; strain 18-J24-015, read-out: Compound 1 MIC alone",8 µg/mL
same,MIC,"[3]; strain 18-J40-021, read-out: Compound 1 MIC alone",8 µg/mL
same,MIC,"[3]; strain 18-J51-052, read-out: Compound 1 MIC alone",4 µg/mL
same,change of the MIC of meropenem by the combination,[3]; compound 1 + meropenem,significantly reduce
same,effect of the combination (summary of Table 1),"[3]; compound 1 + meropenem, strains resistant to carbapenem antibiotics",additive effect (0.5<FIC≤1.0 indicates additive effect)
same,FIC index,[3]; [4],0.750
same,Results,[3]; [4],Additive
same,Compound 1 MIC in combination,[3]; strain 18-J11-001,4 µg/mL
same,FIC index,[3]; [5],0.750
same,Results,[3]; [5],Additive
same,Compound 1 MIC in combination,[3]; strain 18-J11-002,2 µg/mL
same,FIC index,[3]; [6],0.750
same,Results,[3]; [6],Additive
same,Compound 1 MIC in combination,[3]; strain 18-J11-034,2 µg/mL
same,FIC index,[3]; [7],0.750
same,Results,[3]; [7],Additive
same,Compound 1 MIC in combination,[3]; strain 18-J11-097,4 µg/mL
same,FIC index,[3]; [8],0.625
same,Results,[3]; [8],Additive
same,Compound 1 MIC in combination,[3]; strain 18-J15-030,8 µg/mL
same,FIC index,[3]; [9],0.750
same,Results,[3]; [9],Additive
same,Compound 1 MIC in combination,[3]; strain 18-J21-095,4 µg/mL
same,FIC index,[3]; [10],0.750
same,Results,[3]; [10],Additive
same,Compound 1 MIC in combination,[3]; strain 18-J24-015,2 µg/mL
same,FIC index,[3]; [11],0.750
same,Results,[3]; [11],Additive
same,Compound 1 MIC in combination,[3]; strain 18-J40-021,4 µg/mL
same,FIC index,[3]; [12],0.625
same,Results,[3]; [12],Additive
same,Compound 1 MIC in combination,[3]; strain 18-J51-052,2 µg/mL
